Laboratory results taken from ChEMBL document CHEMBL5050844 (2019).

How the values were obtained:
[1] = Induction of anti-CD3/CD28 antibodies-stimulated human T cell activation at 0.3 uM assessed fold increase in IL-2 secretion measured by ELISA assay; type: functional, T cell line
[2] = Induction of anti-CD3 antibodies-stimulated human T cell activation at 8 uM assessed fold increase in CD25 expression measured by ELISA assay; type: functional, T cell line; note: reference of the scale not given here
[3] = Induction of anti-CD3/CD28 antibodies-stimulated human T cell activation at 4 uM assessed fold increase in IL-2 secretion measured by ELISA assay; type: functional, T cell line
[4] = Induction of anti-CD3/CD28 antibodies-stimulated human T cell activation at 0.3 uM assessed fold increase in CD25 expression measured by ELISA assay; type: functional, T cell line
[5] = Induction of anti-CD3 antibodies-stimulated human T cell activation at 1 uM assessed fold increase in IL-2 secretion measured by ELISA assay; type: functional, T cell line; note: reference of the scale not given here
[6] = Induction of anti-CD3/CD28 antibodies-stimulated human T cell activation at 1 uM assessed fold increase in IL-2 secretion measured by ELISA assay; type: functional, T cell line
[7] = Induction of anti-CD3 antibodies-stimulated human T cell activation at 8 uM assessed fold increase in IL-2 secretion measured by ELISA assay; type: functional, T cell line; note: reference of the scale not given here
[8] = biological target: T1, E3 ubiquitin-protein ligase CBL-B (Homo sapiens, UniProt Q13191); assay: Binding affinity towards N-terminal biotinylated Avi-tagged human CBL-B (36 to 427 residues) measured by surface plasmon resonance assay
[9] = Induction of anti-CD3/CD28 antibodies-stimulated human T cell activation at 1 uM assessed fold increase in CD25 expression measured by ELISA assay; type: functional, T cell line
[10] = Induction of anti-CD3/CD28 antibodies-stimulated human T cell activation at 4 uM assessed fold increase in CD25 expression measured by ELISA assay; type: functional, T cell line
[11] = biological target: T1, E3 ubiquitin-protein ligase CBL-B; assay: Inhibition of N-terminal Avi-tagged human CBL-B (36 to 427 residues) incubated with 60 nM Src kinase for 1.5 hrs followed by incubation with fluorescently labeled UbcH5B-Ub for 1 hr and measured by TR-FRET assay; type: single protein
[12] = Induction of anti-CD3 antibodies-stimulated human T cell activation at 1 uM assessed fold increase in CD25 expression measured by ELISA assay; type: functional, T cell line; note: reference of the scale not given here

T1 sequence (Q13191 whole entry, the tested form may be a part): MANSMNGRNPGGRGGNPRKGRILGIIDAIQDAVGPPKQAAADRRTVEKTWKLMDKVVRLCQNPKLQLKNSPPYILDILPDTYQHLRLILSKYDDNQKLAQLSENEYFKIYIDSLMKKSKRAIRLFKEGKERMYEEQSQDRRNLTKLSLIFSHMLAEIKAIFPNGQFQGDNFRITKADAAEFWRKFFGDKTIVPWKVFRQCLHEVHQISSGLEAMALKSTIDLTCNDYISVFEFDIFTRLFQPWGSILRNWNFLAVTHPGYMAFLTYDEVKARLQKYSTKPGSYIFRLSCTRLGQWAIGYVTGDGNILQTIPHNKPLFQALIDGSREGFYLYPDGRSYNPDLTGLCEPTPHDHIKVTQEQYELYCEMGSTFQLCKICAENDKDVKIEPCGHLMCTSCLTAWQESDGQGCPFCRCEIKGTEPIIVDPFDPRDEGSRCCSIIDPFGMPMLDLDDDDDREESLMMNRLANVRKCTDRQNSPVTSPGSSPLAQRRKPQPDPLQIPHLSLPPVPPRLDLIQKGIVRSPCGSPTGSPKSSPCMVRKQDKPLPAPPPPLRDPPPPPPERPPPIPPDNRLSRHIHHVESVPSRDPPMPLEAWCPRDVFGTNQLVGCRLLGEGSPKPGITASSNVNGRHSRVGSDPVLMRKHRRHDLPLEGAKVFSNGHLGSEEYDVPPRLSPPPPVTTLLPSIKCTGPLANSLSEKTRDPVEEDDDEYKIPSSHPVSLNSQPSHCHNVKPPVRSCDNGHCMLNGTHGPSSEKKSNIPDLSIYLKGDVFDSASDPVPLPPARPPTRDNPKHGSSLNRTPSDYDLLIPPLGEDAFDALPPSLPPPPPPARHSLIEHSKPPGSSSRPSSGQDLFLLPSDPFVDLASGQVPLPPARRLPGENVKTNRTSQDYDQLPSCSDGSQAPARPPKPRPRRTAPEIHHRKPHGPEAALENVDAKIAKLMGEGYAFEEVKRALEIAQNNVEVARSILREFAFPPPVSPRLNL

| Structure (SMILES) | Kd [8] | IC50 [11] | fold change (FC) [1] | fold change (FC) [2] | fold change (FC) [3] | fold change (FC) [4] | fold change (FC) [5] | fold change (FC) [6] | fold change (FC) [7] | fold change (FC) [9] | fold change (FC) [10] | fold change (FC) [12] |
| --- | --- | --- | --- | --- | --- | --- | --- | --- | --- | --- | --- | --- |
| C[C@H](Cc1nncn1C)c1cccc(N2Cc3c(cc(CN4C[C@@H](F)[C@@H](O)C4)cc3C(F)(F)F)C2=O)c1 | < 100 nM | < 100 nM | 2.51 | >=1.001 | >=7.5 | 1.01 | 0.151 | 5 | >=0.201 | 1.31 | 1.31 | >=1.001 |
| C[C@H](Cc1nncn1C)c1cccc(N2Cc3c(cc(CN4CC(O)C(F)(F)C4)cc3C(F)(F)F)C2=O)c1 (stereo partly specified) | < 100 nM | < 100 nM | 2.51 | >=1.001 | >=7.5 | 1.01 | 0.101 | 5 | >=0.201 | 1.31 | 1.31 | >=1.001 |
| Cc1cc(C(=O)Nc2cccc([C@@](C)(F)C(F)(F)c3nncn3C)c2)nc(C2CC2)n1 | < 100 nM |  | 1.01 | >=1.001 | >=7.5 | 1.01 | 0.101 | 2.51 | >=0.201 | 1.31 | 1.31 | 0.801 |
| CNc1cc([C@H](C)Cc2nncn2C)cc(N2Cc3c(cccc3C(F)(F)F)C2=O)n1 | < 100 nM | < 100 nM | 1.01 | >=1.001 | 5 | 1.01 | 0.051 | 1.01 | 0.151 | 1.01 | 1.31 | 0.601 |
| C[C@H](Cc1nncn1C)c1cccc(N2Cc3c(cc(CO)cc3C(F)(F)F)C2=O)c1 | < 100 nM | < 100 nM | 2.51 | >=1.001 | >=7.5 | 1.01 | 0.151 | 5 | >=0.201 | 1.01 | 1.31 | >=1.001 |
| CCNc1cc([C@H](C)Cc2nncn2C)cc(N2Cc3c(cccc3C(F)(F)F)C2=O)n1 | < 100 nM | < 100 nM | 2.51 | >=1.001 | >=7.5 | 1.31 | >=0.201 | >=7.5 | >=0.201 | 1.51 | 1.51 | >=1.001 |
| C[C@H](Cc1nncn1C)c1cccc(N2Cc3c(cc(CN4CC(F)C4)cc3C(F)(F)F)C2=O)c1 | < 100 nM | < 100 nM | 2.51 | >=1.001 | >=7.5 | 1.01 | 0.151 | >=7.5 | >=0.201 | 1.01 | 1.31 | >=1.001 |
| C[C@H](Cc1nncn1C)c1cccc(NC(=O)c2cc(C(=O)N3CC(O)C(F)(F)C3)ccn2)c1 (stereo partly specified) | > 10000 nM |  | <=1 | 0.801 | 2.51 | <=1 | >=0.201 | <=1 | >=0.201 | <=1 | 1.31 | 0.601 |
| Cn1cnnc1C(F)(F)[C@](C)(F)c1cccc(N2Cc3c(cc(CN4CC[C@H](S(C)(=O)=O)C4)cc3C(F)(F)F)C2=O)c1 | < 100 nM | < 100 nM | 2.51 | >=1.001 | >=7.5 | 1.01 | 0.101 | 2.51 | >=0.201 | 1.01 | 1.01 | 0.801 |
| C[C@@H]1[C@@H](c2nncn2C)[C@H]1c1cccc(N2Cc3c(cccc3C(F)(F)F)C2=O)c1 | < 100 nM | < 100 nM | >=7.5 | >=1.001 | 5 | >=1.76 | 0.101 | 2.51 | >=0.201 | 1.01 | 1.31 | >=1.001 |
| CCOc1cc([C@H](C)Cc2nncn2C)cc(N2Cc3c(cccc3C(F)(F)F)C2=O)n1 | < 100 nM | < 100 nM | 2.51 | >=1.001 | >=7.5 | 1.01 | 0.151 | 5 | >=0.201 | 1.31 | 1.31 | >=1.001 |
| C[C@H](Cc1nncn1C)c1cccc(N2Cc3c(cc(-n4cccn4)cc3C(F)(F)F)C2=O)c1 | < 100 nM | < 100 nM | 2.51 | >=1.001 | >=7.5 | 1.31 | >=0.201 | >=7.5 | >=0.201 | 1.51 | 1.51 | >=1.001 |
| Cn1cnnc1CC1(c2cccc(NC(=O)c3cc(Cn4ccnn4)nc(C4CC4)n3)c2)COC1 | < 100 nM | < 100 nM | 1.01 |  |  | 1.01 | 0.101 | 2.51 |  | 1.31 |  | 0.801 |

Further lines, with some results ahead:

| Kd [8] | IC50 [11] | Structure (SMILES) | fold change (FC) [1] | fold change (FC) [2] | fold change (FC) [3] | fold change (FC) [4] | fold change (FC) [5] | fold change (FC) [6] | fold change (FC) [7] | fold change (FC) [9] | fold change (FC) [10] | fold change (FC) [12] |
| --- | --- | --- | --- | --- | --- | --- | --- | --- | --- | --- | --- | --- |
| < 100 nM | < 100 nM | Cc1[nH]ncc1-c1cc2c(c(C(F)(F)F)c1)CN(c1cccc([C@H](C)Cc3nncn3C)c1)C2=O | 2.51 | >=1.001 | >=7.5 | 1.31 | 0.151 | 5 | >=0.201 | 1.51 | 1.51 | 0.801 |
| < 100 nM | < 100 nM | C[C@H](Cc1nncn1C)c1cccc(N2Cc3c(cc(CN4C[C@@H](O)[C@H](F)C4)cc3C(F)(F)F)C2=O)c1 | 2.51 | >=1.001 | >=7.5 | 1.01 | >=0.201 | >=7.5 | >=0.201 | 1.31 | 1.31 | >=1.001 |
| < 100 nM | < 100 nM | CC(O)c1cc2c(c(C(F)(F)F)c1)CN(c1cccc([C@H](C)Cc3nncn3C)c1)C2=O (stereo partly specified) | 2.51 | >=1.001 | >=7.5 | 1.01 | 0.151 | 5 | >=0.201 | 1.31 | 1.31 | 0.801 |
| < 100 nM | < 100 nM | CC1C=NN=C1C[C@@H](C)c1cccc(N2Cc3c(cc(C(=O)N4C[C@@H](O)C[C@H]4C)cc3C(F)(F)F)C2=O)c1 (stereo partly specified) | 1.01 | >=1.001 | >=7.5 | 1.01 | 0.151 | 2.51 | >=0.201 | 1.01 | 1.31 | >=1.001 |
| < 100 nM |  | Cn1cnnc1C(F)(F)[C@](C)(F)c1cccc(N2Cc3c(cc(CN4CC(F)C4)cc3C(F)(F)F)C2=O)c1 | 1.01 | >=1.001 | >=7.5 | 1.01 | 0.101 | 5 | >=0.201 | 1.01 | 1.31 | 0.801 |
| < 100 nM | < 100 nM | C[C@H](Cc1nncn1C)c1cccc(N2Cc3c(cc(N[C@H]4CCNC4)cc3C(F)(F)F)C2=O)c1 | 1.01 | >=1.001 | 2.51 | 1.01 | 0.101 | 2.51 | 0.151 | 1.01 | 1.01 | 0.801 |
